In US12545695B2, “Compounds for inhibiting neovascularization factors and use thereof” (UNIST (ULSAN NATIONAL INSTITUTE OF SCIENCE AND TECHNOLOGY), priority 2019, dated 2026):

System: oxygen-induced retinopathy mouse model
Experiment: Oxygen-induced retinopathy mouse model, intraocular injection, retinal vascular analysis
Type: in vivo, C57BL/6J mice
Conditions: 1 ul of 0.15 mM intraocularly injected once at P12, analysis P17 (FIG. 17)
Experimental: An oxygen-induced retinopathy mouse model was induced by rearing young C57BL/6J (Hyochang Science Inc.) mice aged 7 days after birth (P7) in a hyperoxic chamber (Coy Lab. in vivo chamber, 75% O2) for 5 days (P12), and then rearing the mice in a normoxic environment for 5 days (P17). After the young mice were removed from the hyperoxic chamber (P12), 1 ul of SMX was intraocularly injected once at a concentration of 0.15 mM (0.1% DMSO). The SMX used for ocular injection was used after being diluted in phosphate buffer saline (1×PBS) to 0.1%, and 0.1% DMSO in 1×pbs was used in control mice. In the case of Eylea (aflibercept, anti-VEGFab), 40 ug was diluted in 1 ul and 1 ul was intraocularly injected.
The oxygen-induced retinopathy mouse model was formed, and then perfused with 1×PBS and 4% PFA. After mouse eyes were extracted and fixed in 4% PFA, the retinas were isolated. The isolated retinas were washed with 1×PBS, and then blocked (0.1% BSA, 0.1% Triton X-100 in 1×PBS) at room temperature for 1 hour. The retinas were treated with a CD31 blood-vessel staining antibody (CD31, Cell Signaling, 1:100) overnight at 4° C. […] Blood vessel staining was analyzed under a fluorescence microscope (Zen, Axio Zoom). […]
The oxygen-induced retinopathy mouse model was formed, and then perfused with 1×PBS and 4% PFA. […] Blood vessel staining was analyzed under a fluorescence microscope (Zen, Axio Zoom). […]

SMILES: COC1=C(OC)C(=O)C(CCCCCCCCCC[P+](c2ccccc2)(c2ccccc2)c2ccccc2)=C(C)C1=O [SMx]
- avascular area of the retina: significantly reduced compared to the Eylea-injected mouse retina
- neovascular area of the retina: reduced to the same level as that of the Eylea-injected mouse retina
